ChEMBL document CHEMBL2034905, “Synthesis of benzimidazolyl-1,3,4-oxadiazol-2ylthio-N-phenyl (benzothiazolyl) acetamides as antibacterial, antifungal and antituberculosis agents” (Eur J Med Chem, 2012)
In brackets after ≈: the same amount, converted by molar mass.

Columns and labels:
Pseudomonas aeruginosa [1] = experiment: Antibacterial activity against Pseudomonas aeruginosa MTCC 741 by agar streak dilution method; format: functional
[2] = system: Mycobacterium tuberculosis; experiment: Antituberculosis activity against Mycobacterium tuberculosis H37Rv by BACTEC MGIT method; format: functional
Shigella flexneri [3] = experiment: Antibacterial activity against Shigella flexneri MTCC 1457 at 100 ug/disc by paper disc diffusion technique; format: functional; conditions: read-out: IZ
Bacillus cereus [4] = experiment: Antibacterial activity against Bacillus cereus MTCC 430 by agar streak dilution method; format: functional
Escherichia coli [5] = experiment: Antibacterial activity against Escherichia coli MTCC 739 at 100 ug/disc by paper disc diffusion technique; format: functional; conditions: read-out: IZ
Bacillus cereus [6] = experiment: Antibacterial activity against Bacillus cereus MTCC 430 at 100 ug/disc by paper disc diffusion technique; format: functional; conditions: read-out: IZ
Klebsiella pneumoniae [7] = experiment: Antibacterial activity against Klebsiella pneumoniae MTCC 109 by agar streak dilution method; format: functional
Escherichia coli [8] = experiment: Antibacterial activity against Escherichia coli MTCC 739 by agar streak dilution method; format: functional
Klebsiella pneumoniae [9] = experiment: Antibacterial activity against Klebsiella pneumoniae MTCC 109 at 100 ug/disc by paper disc diffusion technique; format: functional; conditions: read-out: IZ
Proteus vulgaris [10] = experiment: Antibacterial activity against Proteus vulgaris MTCC 1771 by agar streak dilution method; format: functional
Aspergillus clavatus [11] = experiment: Antifungal activity against Aspergillus clavatus MTCC 1323 by agar streak dilution method; format: functional
Aspergillus niger [12] = experiment: Antifungal activity against Aspergillus niger MTCC 282 at 100 ug/disc by paper disc diffusion technique; format: functional; conditions: read-out: IZ
Aspergillus fumigatus [13] = experiment: Antifungal activity against Aspergillus fumigatus MTCC 343 by agar streak dilution method; format: functional
Staphylococcus aureus [14] = experiment: Antibacterial activity against Staphylococcus aureus MTCC 96 by agar streak dilution method; format: functional
[15] = system: Mycobacterium tuberculosis; experiment: Antituberculosis activity against Mycobacterium tuberculosis H37Rv by Lowenstein-Jensen method; format: functional
Proteus vulgaris [16] = experiment: Antibacterial activity against Proteus vulgaris MTCC 1771 at 100 ug/disc by paper disc diffusion technique; format: functional; conditions: read-out: IZ
Salmonella typhi [17] = experiment: Antibacterial activity against Salmonella typhi MTCC 733 by agar streak dilution method; format: functional, Salmonella enterica subsp. enterica serovar Typhi; conditions: Salmonella enterica
Aspergillus clavatus [18] = experiment: Antifungal activity against Aspergillus clavatus MTCC 1323 at 100 ug/disc by paper disc diffusion technique; format: functional; conditions: read-out: IZ
Aspergillus fumigatus [19] = experiment: Antifungal activity against Aspergillus fumigatus MTCC 343 at 100 ug/disc by paper disc diffusion technique; format: functional; conditions: read-out: IZ
[20] = system: Mycobacterium tuberculosis; experiment: Antituberculosis activity against Mycobacterium tuberculosis H37Rv at 6.25 ug/ml by Lowenstein-Jensen method; format: functional
Pseudomonas aeruginosa [21] = experiment: Antibacterial activity against Pseudomonas aeruginosa MTCC 741 at 100 ug/disc by paper disc diffusion technique; format: functional; conditions: read-out: IZ
Candida albicans [22] = experiment: Antifungal activity against Candida albicans MTCC 183 by agar streak dilution method; format: functional
Salmonella typhi [23] = experiment: Antibacterial activity against Salmonella typhi MTCC 733 at 100 ug/disc by paper disc diffusion technique; format: functional, Salmonella enterica subsp. enterica serovar Typhi; conditions: Salmonella enterica, read-out: IZ
Staphylococcus aureus [24] = experiment: Antibacterial activity against Staphylococcus aureus MTCC 96 at 100 ug/disc by paper disc diffusion technique; format: functional; conditions: read-out: IZ
Shigella flexneri [25] = experiment: Antibacterial activity against Shigella flexneri MTCC 1457 by agar streak dilution method; format: functional
Candida albicans [26] = experiment: Antifungal activity against Candida albicans MTCC 183 at 100 ug/disc by paper disc diffusion technique; format: functional; conditions: read-out: IZ
Aspergillus niger [27] = experiment: Antifungal activity against Aspergillus niger MTCC 282 by agar streak dilution method; format: functional

SMILES | MIC (Pseudomonas aeruginosa [1]) | MIC [2] | zone of inhibition at 100 µg/disc (Shigella flexneri [3]) | MIC (Bacillus cereus [4]) | zone of inhibition at 100 µg/disc (Escherichia coli [5]) | zone of inhibition at 100 µg/disc (Bacillus cereus [6]) | MIC (Klebsiella pneumoniae [7]) | MIC (Escherichia coli [8]) | zone of inhibition at 100 µg/disc (Klebsiella pneumoniae [9]) | MIC (Proteus vulgaris [10]) | MIC (Aspergillus clavatus [11]) | zone of inhibition at 100 µg/disc (Aspergillus niger [12]) | MIC (Aspergillus fumigatus [13]) | MIC (Staphylococcus aureus [14]) | MIC [15] | zone of inhibition at 100 µg/disc (Proteus vulgaris [16]) | MIC (Salmonella typhi [17]) | zone of inhibition at 100 µg/disc (Aspergillus clavatus [18]) | zone of inhibition at 100 µg/disc (Aspergillus fumigatus [19]) | inhibition at 6.25 µg/mL [20] | also measured
O=C(CSc1nnc(Cn2cnc3ccccc32)o1)Nc1ccccc1 | 50 µg/mL (≈ 137 µM) | > 6.25 µg/mL | 13 mm | 100 µg/mL (≈ 274 µM) | 13 mm | < 10 mm | 100 µg/mL (≈ 274 µM) | 100 µg/mL (≈ 274 µM) | 13 mm | 100 µg/mL (≈ 274 µM) | 100 µg/mL (≈ 274 µM) | < 10 mm | 100 µg/mL (≈ 274 µM) | 100 µg/mL (≈ 274 µM) | 500 µg/mL (≈ 1370 µM) | 13 mm | 100 µg/mL (≈ 274 µM) | < 10 mm | 13 mm | 95% | zone of inhibition at 100 µg/disc (Pseudomonas aeruginosa [21]): 21 mm; MIC (Candida albicans [22]): 100 µg/mL (≈ 274 µM); zone of inhibition at 100 µg/disc (Salmonella typhi [23]): < 10 mm; zone of inhibition at 100 µg/disc (Staphylococcus aureus [24]): 12 mm; MIC (Shigella flexneri [25]): 100 µg/mL (≈ 274 µM); zone of inhibition at 100 µg/disc (Candida albicans [26]): < 10 mm; MIC (Aspergillus niger [27]): 100 µg/mL (≈ 274 µM)
O=C(CSc1nnc(Cn2cnc3ccccc32)o1)Nc1ccc(Cl)cc1 | 12.5 µg/mL (≈ 31.3 µM) | > 6.25 µg/mL | 22 mm | 50 µg/mL (≈ 125 µM) | 15 mm | 11 mm | 50 µg/mL (≈ 125 µM) | 100 µg/mL (≈ 250 µM) | 21 mm | 50 µg/mL (≈ 125 µM) | 100 µg/mL (≈ 250 µM) | < 10 mm | 100 µg/mL (≈ 250 µM) | 50 µg/mL (≈ 125 µM) | 25 µg/mL (≈ 62.5 µM) | 20 mm | 100 µg/mL (≈ 250 µM) | 14 mm | 16 mm | 98% | zone of inhibition at 100 µg/disc (Pseudomonas aeruginosa [21]): 26 mm; MIC (Candida albicans [22]): 100 µg/mL (≈ 250 µM); zone of inhibition at 100 µg/disc (Salmonella typhi [23]): 17 mm; zone of inhibition at 100 µg/disc (Staphylococcus aureus [24]): 15 mm; MIC (Shigella flexneri [25]): 12.5 µg/mL (≈ 31.3 µM); zone of inhibition at 100 µg/disc (Candida albicans [26]): 14 mm; MIC (Aspergillus niger [27]): 100 µg/mL (≈ 250 µM)
O=C(CSc1nnc(Cn2cnc3ccccc32)o1)Nc1ccc(Br)cc1 | 12.5 µg/mL (≈ 28.1 µM) | > 6.25 µg/mL | 22 mm | 12.5 µg/mL (≈ 28.1 µM) | 19 mm | 26 mm | 50 µg/mL (≈ 113 µM) | 50 µg/mL (≈ 113 µM) | 22 mm | 100 µg/mL (≈ 225 µM) | 50 µg/mL (≈ 113 µM) | 16 mm | 25 µg/mL (≈ 56.3 µM) | 6.25 µg/mL (≈ 14.1 µM) | 12.5 µg/mL (≈ 28.1 µM) | 17 mm | 50 µg/mL (≈ 113 µM) | 23 mm | 24 mm | 99% | zone of inhibition at 100 µg/disc (Pseudomonas aeruginosa [21]): 26 mm; MIC (Candida albicans [22]): 100 µg/mL (≈ 225 µM); zone of inhibition at 100 µg/disc (Salmonella typhi [23]): 22 mm; zone of inhibition at 100 µg/disc (Staphylococcus aureus [24]): 23 mm; MIC (Shigella flexneri [25]): 25 µg/mL (≈ 56.3 µM); zone of inhibition at 100 µg/disc (Candida albicans [26]): 16 mm; MIC (Aspergillus niger [27]): 100 µg/mL (≈ 225 µM)
O=C(CSc1nnc(Cn2cnc3ccccc32)o1)Nc1ccc(F)cc1 | 12.5 µg/mL (≈ 32.6 µM) | > 6.25 µg/mL | 23 mm | 50 µg/mL (≈ 130 µM) | 18 mm | 16 mm | 50 µg/mL (≈ 130 µM) | 50 µg/mL (≈ 130 µM) | 22 mm | 50 µg/mL (≈ 130 µM) | 100 µg/mL (≈ 261 µM) | 19 mm | 50 µg/mL (≈ 130 µM) | 25 µg/mL (≈ 65.2 µM) | 50 µg/mL (≈ 130 µM) | 14 mm | 50 µg/mL (≈ 130 µM) | 17 mm | 23 mm | 97% | zone of inhibition at 100 µg/disc (Pseudomonas aeruginosa [21]): 24 mm; MIC (Candida albicans [22]): 100 µg/mL (≈ 261 µM); zone of inhibition at 100 µg/disc (Salmonella typhi [23]): 21 mm; zone of inhibition at 100 µg/disc (Staphylococcus aureus [24]): 18 mm; MIC (Shigella flexneri [25]): 12.5 µg/mL (≈ 32.6 µM); zone of inhibition at 100 µg/disc (Candida albicans [26]): 16 mm; MIC (Aspergillus niger [27]): 50 µg/mL (≈ 130 µM)
O=C(CSc1nnc(Cn2cnc3ccccc32)o1)Nc1ccc(I)cc1 | 25 µg/mL (≈ 50.9 µM) | > 6.25 µg/mL | 20 mm | 100 µg/mL (≈ 204 µM) | 12 mm | 15 mm | 50 µg/mL (≈ 102 µM) | 100 µg/mL (≈ 204 µM) | 23 mm | 25 µg/mL (≈ 50.9 µM) | 100 µg/mL (≈ 204 µM) | < 10 mm | 100 µg/mL (≈ 204 µM) | 50 µg/mL (≈ 102 µM) | 250 µg/mL (≈ 509 µM) | 22 mm | 100 µg/mL (≈ 204 µM) | 13 mm | 17 mm | 95% | zone of inhibition at 100 µg/disc (Pseudomonas aeruginosa [21]): 22 mm; MIC (Candida albicans [22]): 100 µg/mL (≈ 204 µM); zone of inhibition at 100 µg/disc (Salmonella typhi [23]): 16 mm; zone of inhibition at 100 µg/disc (Staphylococcus aureus [24]): 17 mm; MIC (Shigella flexneri [25]): 50 µg/mL (≈ 102 µM); zone of inhibition at 100 µg/disc (Candida albicans [26]): 12 mm; MIC (Aspergillus niger [27]): 100 µg/mL (≈ 204 µM)
